Measurements as given in patent publication US11944688B2, “Biologically active compounds” (SUTURA THERAPEUTICS LTD, priority 2015, dated 2024).
Positions of bridges follow the written chain, without caps; N, C: chain ends. Non-standard residues stand in square brackets, D forms with d. No end group written: not given here. {FITC} = fluorescein isothiocyanate label; S5 = C=CCCC[C@](C)(N)C(=O)O; {NH2} = amine group

What was measured:
[1] = test system: HEK293T cells; assay: Uptake into HEK293T cells by flow cytometry; format: cell-based, human; settings: 4 hours
Protocol: FIG. 11 is the analysis of PMO uptake into HEK293T cells by flow cytometry. Cells were incubated without PMO or with 1 μM PMO, 1 μM PMO-C8M or 1 μM PMO-CP8M-NC (all fluorescein-labelled) at 37° C. for 4 hours. Fluorescence was measured after washing the cells with PBS.
HEK293T cells (Human embryonic kidney) were cultured in high glucose DMEM supplemented with 10% foetal calf serum (Sigma, UK) at 37° C. under an 8% CO2/92% air atmosphere.
(§1) U2OS cells were incubated with PMO or PMO-CP8M at increasing concentration (0.5 μM, 1.0 μM, 5.0 μM and 10 μM) with […] transfection reagent; H2K mdx mouse myoblasts were incubated with PMO or PMO-CP8M at 5.0 μM: HEK293T cells were incubated with CP8M (1.0 μM, 10 μM and 100 μM) and PMO, PMO-CP8M-NC, PMO-C8M at 1.0 μM. Levels of fluorescence was quantified at 494 nm to determine relative entry of respective compounds by microscopic or flow cytometry methodologies.
Uptake of fluorescently-labelled PMO was determined by flow cytometry using an Accuri C6 flow cytometer. PMO-transfected cells were released with trypsin, washed in PBS and kept on ice before analysis. Cell fluorescence in single live cells was determined using FlowJo software after appropriate gating. Untreated cells were used to establish gating settings for the determination of the % fluorescein-positive cells.

[2] = test system: H2K mdx mouse myoblasts; assay: Delivery of fluorescently labelled PMO into H2K mdx myoblasts, fluorescence microscopy; format: cell-based; settings: 5 μM, without transfection reagent
Protocol: (§2) H2K mdx mouse myoblasts were cultured at 33° C. under a 8% CO2/92% air atmosphere in high-glucose DMEM supplemented with 20% foetal calf serum, 0.5% chicken embryo extract (PAA laboratories Ltd, Yeovil, UK), and 20 units/ml γ-interferon (Roche applied science, Penzberg, Germany). Cells were then treated with trypsin and plated at 8×10^4/cm^2 in 24-well plates coated with 0.1 mg/ml ECM gel (Sigma). H2K mdx cells were transfected 24 h after seeding with treatment in a final volume of 0.2 ml of normal growth media. Following 4 hours of transfection, the PMO or PMO-SAP was removed and replaced with DMEM supplemented with 5% horse serum. Fluorescence and RNA extraction was performed 48 hours post transfection.
as §1

[3] = test system: exon 23 of the mouse dystrophin gene; assay: Exon 23 exclusion in H2K mdx cells, nested RT-PCR; format: cell-based; settings: 5 μM, RT-PCR 901 bp full length / 688 bp exon 23 excluded
Protocol: 24 hours after incubation with PMO-CP8M or PMO, H2K mdx cells were recovered and RNA isolated. The RNA was reversed transcribed and an amplification between exon 20 and 26 of the mouse dystrophin gene, followed by a nested amplification between exon 20 and 26 was performed to yield a full length product of 901 bp fragment if exon 23 is present or 688 bp fragment if exon 23 is excluded;
as §2
Total RNA was isolated from H2K mdx mouse myoblasts cells (RNeasy, Qiagen, UK). […]

[4] = test system: dystrophin; assay: Dystrophin immunostaining of Tibialis anterior after intramuscular injection in mdx mice; format: in vivo; settings: single intramuscular 2.2 nmol, 7 days post-administration, n=4
Protocol: Muscles were recovered 7 day post administration;
All dose are given in respect of the molarity of PMO;
(§3) mdx mice, with access to chow and water ad libitum, were used in all experiments. All experiments were carried out in the Animal unit, School of Biological Science, University of Reading, Reading, UK according to procedures authorized by the UK Home Office. Mice were killed by CO2 inhalation or cervical dislocation at desired time points, and muscles and other tissues were snap-frozen in liquid nitrogen-cooled isopentane and stored at −80° C.
(§4) Intramuscular administrations: Tibialis anterior muscles of mdx mice were injected with either 2.2 nmol PMO or 2.2 nmol PMO-CP8M under isoflurane anaesthesia. […]
(§5) For skeletal muscle, heart and brain, […] cryosections were cut and dystrophin protein was detected using rabbit polyclonal antibody to dystrophin (ab15277; Abcam, Cambridge, UK). […] For liver, […] cryosections were dried and embedded in fluorescence-compatible mounting medium (Dako), and general fluorescence was assessed microscopically at 494 nm.

[5] = test system: dystrophin; assay: Dystrophin immunostaining of heart muscle after intraperitoneal administration in mdx mice; format: in vivo
Description: FIG. 18a is of mdx mice following a single intraperitoneal injection of 1 μmol/kg PMO-CP8M or 1 μmol/kg PMO. Muscles were recovered 7 days post administration;
FIG. 18b is following multiple intraperitoneal injections—total 7.6 μmol/kg PMO-CP8M or 7.6 μmol/kg PMO. Muscles were recovered 14 days post administration;
FIG. 18c is following multiple intraperitoneal injections—total 10.9 μmol/kg PMO-CP8M or 10.9 μmol/kg PMO;
FIG. 18d is a graphical representation of the number of cardiac muscle fibre being positive for an immuno-cytochemical staining for dystrophin following a multiple intraperitoneal injections—total 7.6 μmol/kg PMO-CP8M or 7.6 μmol/kg PMO; and
FIG. 18e is a graphical representation of the number of cardiac muscle fibre being positive for an immuno-cytochemical staining for dystrophin following multiple intraperitoneal injections—total 10.9 μmol/kg PMO-CP8M or 10.9 μmol/kg PMO. All dose are given in respect of the molarity of PMO [* denotes non fluorescent labelled PMO]. Hearts were recovered 14 days post administration;
Hearts were recovered 14 days post administration;
as §3, §4, §5

[6] = test system: dystrophin; assay: Dystrophin immunostaining of cerebellum after systemic administration in mdx mice; format: in vivo; settings: single 1 μmol/kg intravenous, without fluorescent label, 7 days, n=1 per group
Protocol: All dose are given in respect of the molarity of PMO [* denotes non fluorescent labelled PMO]. Cerebella were recovered 7 days post administration; and
as §3, §4, §5

[7] = test system: U2OS cells; assay: Delivery of fluorescently labelled PMO into U2OS cells, fluorescence microscopy; format: cell-based, human; settings: 0.5-10 μM, 4 hours, without transfection reagent
Protocol: The biologically active compound was a PMO with a sequence:
(an antisense reagent targeted to exon 23 of the mouse dystrophin gene, that causes the exclusion of exon 23 during mRNA splicing maturation); the bi-functional linker was a PEGylated SMCC; and the StaP was RKF-S5-RLF-S5 (SEQ ID NO: 57). This configuration of DCCPM is depicted as PMO-CP8M in the subsequent figs; unconjugated PMO acts as a control. All compounds were added to U2OS cells maintained in culture, without transfection reagent for 4 hours;
U2OS cells (Human osteosarcoma) were cultured in high glucose DMEM supplemented with 10% foetal calf serum (Sigma, UK) at 37° C. under an 8% CO2/92% air atmosphere.
as §1

Substance | cellular entry of FITC-labelled CP8M charge variants ([1]; HEK293T, 1.0, 10 and 100 μM, without transfection reagent) | muscle cell entry [2] | exclusion of exon 23 from the dystrophin transcript [3] | percentage of dystrophin re-expression [4] | cell entry of fluorescein-labelled PMO ([1]; HEK293T, 1 μM, 37° C.) | dystrophin-positive heart muscle fibres, 7.6 μmol/kg ([5]; intraperitoneal total 7.6 μmol/kg over 4 days, without fluorescent label, 2 weeks post-administration, n=4, mean±SEM) [fibres] | dystrophin-positive heart muscle fibres, 10.9 μmol/kg ([5]; intraperitoneal total 10.9 μmol/kg over 2 days, n=4, mean±SEM) [fibres] | dystrophin-positive heart muscle fibres, single low dose ([5]; single intraperitoneal 1 μmol/kg, 7 days, n=1 per group) | dystrophin expression in Purkinje cells of cerebellum [6] | fluorescence signal (cell entry) [7]
CP8M: CPP sequence RKF-S5-RLF-S5 (SEQ ID NO: 57) with PEGylated SMCC as BFL (RKF[S5]RLF[S5]-NH2; staple 4-8; also: PEGylated SMCC as BFL, attachment not given here) | dose dependent increase | – | – | – | – | – | – | – | – | –
PMO: PMO 5′GGCCAAACCTCGGCTTACCTGAAAT3′ targeted to exon 23 of mouse dystrophin gene; 5′ amine, 3′ FITC label; unconjugated control (all phosphorodiamidate morpholino (PMO), 5' {NH2}, 3' {FITC}) | – | refractory to muscle cell entry | lack of exon exclusion | 762.25 | refractory to cell entry | 57±17 | 33±8 | not | No dystrophin expression was observed | only a background fluorescence signal
